In a compilation of properties of binary mixtures (doi:10.1016/j.jct.2012.02.027):

Assay: xn = mol fraction of the nth substance listed
Settings: 101 kPa

Compound `CCO` + CC(=O)[O-].CC[n+]1ccn(C)c1 has a viscosity (298.15 K, x1 = 1) of 1.09 mPa·s, a viscosity (313.15 K, x1 = 1) of 0.83 mPa·s and a viscosity (328.15 K, x1 = 1) of 0.64 mPa·s. It also gave a viscosity (343.15 K, x1 = 1) of 0.5 mPa·s.

For `O` + CC(=O)[O-].CC[n+]1ccn(C)c1, the viscosity (328.15 K, x1 = 1) was 0.51 mPa·s and the viscosity (343.15 K, x1 = 1) was 0.41 mPa·s.

With `CC(=O)[O-].CC[n+]1ccn(C)c1` + CCO the viscosity (298.15 K, x2 = 0) was 132.9 mPa·s, the viscosity (298.15 K, x2 = 0.1059) was 92.3 mPa·s and the viscosity (298.15 K, x2 = 0.1638) was 75 mPa·s. For the same compound, the viscosity (298.15 K, x2 = 0.2471) was 54.2 mPa·s, the viscosity (298.15 K, x2 = 0.3504) was 35.2 mPa·s and the viscosity (298.15 K, x2 = 0.4165) was 26.5 mPa·s. It also gave a viscosity (298.15 K, x2 = 0.4824) of 19.82 mPa·s, a viscosity (298.15 K, x2 = 0.5572) of 14.11 mPa·s and a viscosity (298.15 K, x2 = 0.6646) of 8.27 mPa·s. The viscosity (298.15 K, x2 = 0.7494) was 5.35 mPa·s, the viscosity (313.15 K, x2 = 0) was 57.7 mPa·s and the viscosity (313.15 K, x2 = 0.1638) was 36.9 mPa·s. It also gave a viscosity (313.15 K, x2 = 0.3504) of 20.3 mPa·s, a viscosity (313.15 K, x2 = 0.4165) of 16.06 mPa·s and a viscosity (313.15 K, x2 = 0.4824) of 12.48 mPa·s. It also gave a viscosity (313.15 K, x2 = 0.6646) of 5.79 mPa·s, a viscosity (313.15 K, x2 = 0.8666) of 2.02 mPa·s and a viscosity (328.15 K, x2 = 0.1059) of 24.1 mPa·s. For the same compound, the viscosity (328.15 K, x2 = 0.1638) was 21.14 mPa·s, the viscosity (328.15 K, x2 = 0.2471) was 17.22 mPa·s and the viscosity (328.15 K, x2 = 0.3504) was 12.77 mPa·s. It also gave a viscosity (328.15 K, x2 = 0.4165) of 10.47 mPa·s, a viscosity (328.15 K, x2 = 0.4824) of 8.44 mPa·s and a viscosity (328.15 K, x2 = 0.5572) of 6.48 mPa·s. The viscosity (328.15 K, x2 = 0.6646) was 4.27 mPa·s, the viscosity (328.15 K, x2 = 0.7494) was 2.96 mPa·s and the viscosity (328.15 K, x2 = 0.8666) was 1.59 mPa·s. It also gave a viscosity (343.15 K, x2 = 0) of 18.1 mPa·s, a viscosity (343.15 K, x2 = 0.1638) of 13.51 mPa·s and a viscosity (343.15 K, x2 = 0.2471) of 11.24 mPa·s. The viscosity (343.15 K, x2 = 0.4824) was 6.05 mPa·s, the viscosity (343.15 K, x2 = 0.5572) was 4.76 mPa·s and the viscosity (343.15 K, x2 = 0.6646) was 3.27 mPa·s. It also gave a viscosity (343.15 K, x2 = 0.7494) of 2.33 mPa·s and a viscosity (343.15 K, x2 = 0.8666) of 1.28 mPa·s.

Work on `CC[n+]1ccn(C)c1.N#C[N-]C#N` + CCO yielded a viscosity (298.15 K, x2 = 0) of 14.9 mPa·s, a viscosity (298.15 K, x2 = 0.102) of 12.69 mPa·s and a viscosity (298.15 K, x2 = 0.1981) of 10.8 mPa·s. For the same compound, the viscosity (298.15 K, x2 = 0.279) was 9.27 mPa·s, the viscosity (298.15 K, x2 = 0.3596) was 7.85 mPa·s and the viscosity (298.15 K, x2 = 0.4741) was 6.04 mPa·s. For the same compound, the viscosity (298.15 K, x2 = 0.6867) was 3.47 mPa·s, the viscosity (298.15 K, x2 = 0.8503) was 2.08 mPa·s and the viscosity (298.15 K, x2 = 0.9327) was 1.53 mPa·s. It also gave a viscosity (313.15 K, x2 = 0.102) of 8.69 mPa·s, a viscosity (313.15 K, x2 = 0.1981) of 7.53 mPa·s and a viscosity (313.15 K, x2 = 0.279) of 6.58 mPa·s. The viscosity (313.15 K, x2 = 0.4741) was 4.45 mPa·s, the viscosity (313.15 K, x2 = 0.6028) was 3.31 mPa·s and the viscosity (313.15 K, x2 = 0.6867) was 2.65 mPa·s. It also gave a viscosity (313.15 K, x2 = 0.7678) of 2.1 mPa·s, a viscosity (313.15 K, x2 = 0.8503) of 1.63 mPa·s and a viscosity (313.15 K, x2 = 0.9327) of 1.19 mPa·s. It also gave a viscosity (328.15 K, x2 = 0.102) of 6.32 mPa·s, a viscosity (328.15 K, x2 = 0.1981) of 5.5 mPa·s and a viscosity (328.15 K, x2 = 0.279) of 4.86 mPa·s. For the same compound, the viscosity (328.15 K, x2 = 0.4741) was 3.47 mPa·s, the viscosity (328.15 K, x2 = 0.6028) was 2.59 mPa·s and the viscosity (328.15 K, x2 = 0.6867) was 2.09 mPa·s. The viscosity (328.15 K, x2 = 0.7678) was 1.67 mPa·s, the viscosity (328.15 K, x2 = 0.8503) was 1.3 mPa·s and the viscosity (328.15 K, x2 = 0.9327) was 0.93 mPa·s. The viscosity (343.15 K, x2 = 0) was 5.48 mPa·s, the viscosity (343.15 K, x2 = 0.102) was 4.85 mPa·s and the viscosity (343.15 K, x2 = 0.279) was 3.81 mPa·s. It also gave a viscosity (343.15 K, x2 = 0.3596) of 3.37 mPa·s, a viscosity (343.15 K, x2 = 0.4741) of 2.76 mPa·s and a viscosity (343.15 K, x2 = 0.6028) of 2.13 mPa·s. For the same compound, the viscosity (343.15 K, x2 = 0.6867) was 1.7 mPa·s, the viscosity (343.15 K, x2 = 0.7678) was 1.37 mPa·s and the viscosity (343.15 K, x2 = 0.8503) was 1.1 mPa·s. It also gave a viscosity (343.15 K, x2 = 0.9327) of 0.75 mPa·s.

For `CCO` + CC[n+]1ccn(C)c1.N#C[N-]C#N, the viscosity (298.15 K, x1 = 1) was 1.09 mPa·s and the viscosity (343.15 K, x1 = 1) was 0.5 mPa·s.

Compound `O` + CC[n+]1ccn(C)c1.N#C[N-]C#N has a viscosity (298.15 K, x1 = 1) of 0.89 mPa·s.

`CC(=O)[O-].CC[n+]1ccn(C)c1` + O gave a viscosity (298.15 K, x2 = 0.222) of 89.2 mPa·s, a viscosity (298.15 K, x2 = 0.3233) of 73 mPa·s and a viscosity (298.15 K, x2 = 0.6805) of 28.8 mPa·s. It also gave a viscosity (298.15 K, x2 = 0.7482) of 21.9 mPa·s, a viscosity (298.15 K, x2 = 0.8134) of 15.44 mPa·s and a viscosity (298.15 K, x2 = 0.9067) of 6.16 mPa·s. It also gave a viscosity (313.15 K, x2 = 0) of 57.7 mPa·s, a viscosity (313.15 K, x2 = 0.0992) of 49.5 mPa·s and a viscosity (313.15 K, x2 = 0.222) of 42.3 mPa·s. For the same compound, the viscosity (313.15 K, x2 = 0.3233) was 36 mPa·s, the viscosity (313.15 K, x2 = 0.4207) was 30.2 mPa·s and the viscosity (313.15 K, x2 = 0.6135) was 19.09 mPa·s. For the same compound, the viscosity (313.15 K, x2 = 0.6805) was 15.63 mPa·s, the viscosity (313.15 K, x2 = 0.7482) was 11.99 mPa·s and the viscosity (313.15 K, x2 = 0.8134) was 8.51 mPa·s. For the same compound, the viscosity (313.15 K, x2 = 0.9067) was 3.74 mPa·s, the viscosity (328.15 K, x2 = 0) was 30.3 mPa·s and the viscosity (328.15 K, x2 = 0.222) was 23.49 mPa·s. For the same compound, the viscosity (328.15 K, x2 = 0.3233) was 20.48 mPa·s, the viscosity (328.15 K, x2 = 0.5408) was 13.85 mPa·s and the viscosity (328.15 K, x2 = 0.6135) was 11.44 mPa·s. It also gave a viscosity (328.15 K, x2 = 0.7482) of 7.32 mPa·s, a viscosity (328.15 K, x2 = 0.9067) of 2.54 mPa·s and a viscosity (343.15 K, x2 = 0) of 18.1 mPa·s. For the same compound, the viscosity (343.15 K, x2 = 0.0992) was 16.46 mPa·s, the viscosity (343.15 K, x2 = 0.3233) was 13.21 mPa·s and the viscosity (343.15 K, x2 = 0.4207) was 11.11 mPa·s. The viscosity (343.15 K, x2 = 0.6135) was 7.48 mPa·s, the viscosity (343.15 K, x2 = 0.7482) was 4.87 mPa·s and the viscosity (343.15 K, x2 = 0.8134) was 3.57 mPa·s. The viscosity (343.15 K, x2 = 0.9067) was 1.81 mPa·s.

In the case of `CC[n+]1ccn(C)c1.N#C[N-]C#N` + O, the viscosity (298.15 K, x2 = 0.1299) is reported as 12.78 mPa·s, the viscosity (298.15 K, x2 = 0.5429) is reported as 6.96 mPa·s and the viscosity (298.15 K, x2 = 0.6534) is reported as 5.41 mPa·s. For the same compound, the viscosity (298.15 K, x2 = 0.7355) was 4.41 mPa·s, the viscosity (298.15 K, x2 = 0.953) was 1.47 mPa·s and the viscosity (313.15 K, x2 = 0) was 10.07 mPa·s. It also gave a viscosity (313.15 K, x2 = 0.1299) of 8.71 mPa·s, a viscosity (313.15 K, x2 = 0.3042) of 7.04 mPa·s and a viscosity (313.15 K, x2 = 0.4308) of 5.8 mPa·s. It also gave a viscosity (313.15 K, x2 = 0.5429) of 4.81 mPa·s, a viscosity (313.15 K, x2 = 0.6534) of 3.81 mPa·s and a viscosity (313.15 K, x2 = 0.7355) of 3.11 mPa·s. It also gave a viscosity (313.15 K, x2 = 0.7944) of 2.56 mPa·s, a viscosity (328.15 K, x2 = 0) of 7.26 mPa·s and a viscosity (328.15 K, x2 = 0.1299) of 6.33 mPa·s. The viscosity (328.15 K, x2 = 0.2248) was 5.65 mPa·s, the viscosity (328.15 K, x2 = 0.3042) was 5.11 mPa·s and the viscosity (328.15 K, x2 = 0.4308) was 4.3 mPa·s. It also gave a viscosity (328.15 K, x2 = 0.5429) of 3.58 mPa·s, a viscosity (328.15 K, x2 = 0.6534) of 2.84 mPa·s and a viscosity (328.15 K, x2 = 0.7355) of 2.32 mPa·s. The viscosity (328.15 K, x2 = 0.8803) was 1.31 mPa·s, the viscosity (328.15 K, x2 = 0.953) was 0.82 mPa·s and the viscosity (343.15 K, x2 = 0.1299) was 4.84 mPa·s. For the same compound, the viscosity (343.15 K, x2 = 0.2248) was 4.34 mPa·s, the viscosity (343.15 K, x2 = 0.3042) was 3.94 mPa·s and the viscosity (343.15 K, x2 = 0.4308) was 3.33 mPa·s. For the same compound, the viscosity (343.15 K, x2 = 0.5429) was 2.78 mPa·s, the viscosity (343.15 K, x2 = 0.6534) was 2.23 mPa·s and the viscosity (343.15 K, x2 = 0.7355) was 1.8 mPa·s. The viscosity (343.15 K, x2 = 0.7944) was 1.48 mPa·s, the viscosity (343.15 K, x2 = 0.8803) was 1.04 mPa·s and the viscosity (343.15 K, x2 = 0.953) was 0.66 mPa·s.
